The source of these data is US12661410B2, “Compounds for targeted degradation of RET” (C4 Therapeutics, Inc., priority 2020, dated 2026).

Positions count from the first letter of the chain named. Where two headings read alike, the source gives them in different places.

The target in one test is T1, RET(KD: 658-1114 G810R) (Homo sapiens, UniProt P07949, G810R).
T1 construct: 658-1114; expressed in transfected cells; host or cells: 293T.165 (293T cells, generated in-house)
T1 sequence (P07949 658-1114 G810R): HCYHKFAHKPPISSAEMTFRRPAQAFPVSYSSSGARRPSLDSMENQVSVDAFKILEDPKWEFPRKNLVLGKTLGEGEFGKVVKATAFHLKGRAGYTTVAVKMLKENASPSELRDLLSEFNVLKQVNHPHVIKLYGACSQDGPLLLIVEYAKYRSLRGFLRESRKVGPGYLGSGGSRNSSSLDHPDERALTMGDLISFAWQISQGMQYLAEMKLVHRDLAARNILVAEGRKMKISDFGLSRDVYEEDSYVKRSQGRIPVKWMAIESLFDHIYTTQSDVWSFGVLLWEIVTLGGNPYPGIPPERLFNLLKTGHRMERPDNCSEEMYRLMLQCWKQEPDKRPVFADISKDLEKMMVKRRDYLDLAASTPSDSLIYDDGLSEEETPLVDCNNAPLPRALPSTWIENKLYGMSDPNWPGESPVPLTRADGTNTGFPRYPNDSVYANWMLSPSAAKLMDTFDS
Nature of the test: HiBiT-Degradation, RET G810R degradation assay (Nano-Glo HiBiT Lytic), 293T.165 cells. The settings on record: for Emax / DC50: 6.0 hours. It is filed as cell-based. The essentials: (§1)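 Degradation quantified by HiBiT lytic luminescence in 293T cells expressing tagged WT or G810R RET kinase domain after 6 h dosing up to 10 μM; DC50 and Emax fitted.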
(With HiBiT, luminescence reflects the tagged protein that the partner subunit can reach.)

Another test has as its target T2, RET (658-1114) (Homo sapiens, UniProt P07949).
T2 construct: 658-1114; expressed in transfected cells; host or cells: 293T.144 (293T cells, generated in-house)
T2 sequence (P07949 658-1114): T1 sequence (P07949 658-1114 G810R) with R153G
Nature of the test: HiBiT-Degradation, RET wild-type degradation assay (Nano-Glo HiBiT Lytic), 293T.144 cells. It is filed as cell-based. The settings on record: for DC50 / Emax: 6.0 hours. The essentials: as §1

The mark [1] stands for this setting: % remaining protein, read-out: 293T.165 RET(KD: 658-1114 G810R) 6.0 hours (Emax).
Where [2] appears, read: half-maximal degradation concentration, read-out: 293T.165 RET(KD: 658-1114 G810R) 6.0 hours (DC50).
Where [3] appears, read: HiBiT-Degradation, read-out: 293T.165 RET(KD: 658-1114 G810R) 6.0 hours (DC50).
[4] abbreviates: HiBiT-Degradation, read-out: 293T.144 RET (658-1114) 6.0 hours (DC50).
[5] abbreviates: HiBiT-Degradation, read-out: 293T.144 RET (658-1114) 6.0 hours (Emax).

Usually Emax stands for the size of the effect at its maximum, as opposed to the concentration needed. The term DC50 denotes the concentration at which degradation of the target reaches its halfway point. In the case of `N#Cc1cnn2cc(-c3cnn(C4CCN(C(=O)CN5CCC(c6ccc(NC7CCC(=O)NC7=O)cc6F)CC5)CC4)c3)cc(-c3ccc(N4CCN(C(=O)Cc5ccc(F)cn5)CC4)nc3)c12` (stereo not drawn) [Compound 5, 6-[1-[1-[2-[4-[4-[(2,6-dioxo-3-piperidyl)amino]-2-fluoro-phenyl]-1-piperidyl]acetyl]-4-piperidyl]pyrazol-4-yl]-4-[6-[4-[2-(5-fluoro-2-pyridyl)acetyl]piperazin-1-yl]-3-pyridyl]pyrazolo[1,5-a]pyridine-3-carbonitrile], the maximal effect (Emax) at RET(KD: 658-1114 G810R) (setting [1]) and at RET (658-1114) (setting [5]) was under 30% in each case. The DC50 on RET(KD: 658-1114 G810R) (setting [2]), at RET(KD: 658-1114 G810R) (setting [3]) and at RET (658-1114) (setting [4]) was under 50 nM throughout. The “293T.165 RET(KD: 658-1114 G810R) 6.0 hours (Emax)” value on RET(KD: 658-1114 G810R) (HiBiT-Degradation) is reported as “++++ (< 30% = ++++)”. In addition, at RET(KD: 658-1114 G810R) (HiBiT-Degradation), the “293T.165 RET(KD: 658-1114 G810R) 6.0 hours (IP) [nM]” value is given as “++++ (< 50 nM = ++++)”. Further, at RET (658-1114) (HiBiT-Degradation), the “293T.144 RET (658-1114) 6.0 hours (IP) [nM]” value is “++++ (< 50 nM = ++++)”.

For `N#Cc1cnn2cc(-c3cnn([C@H]4CC[C@@H](N5CCN(c6ccc(N[C@@H]7CCC(=O)NC7=O)cc6F)CC5)CC4)c3)nc(-c3ccc(N4CC5CC(C4)N5C(=O)c4c(F)cccc4F)nc3)c12` (single isomer, unassigned) [Compound 172], on RET(KD: 658-1114 G810R), the “293T.165 RET(KD: 658-1114 G810R) 6.0 hours (IP) [nM]” value is listed as “++++ (<50 nM = ++++)”. For the same molecule, the Emax at RET(KD: 658-1114 G810R) (setting [1]) is under 30%; on RET (658-1114) (% remaining protein, read-out: 293T.144 RET (658-1114) 6.0 hours (Emax)) it was under 30%. The DC50 was under 50 nM on RET(KD: 658-1114 G810R) (setting [2]) and under 50 nM at RET (658-1114) (half-maximal degradation concentration, read-out: 293T.144 RET (658-1114) 6.0 hours (DC50)). Also, the “293T.144 RET (658-1114) 6.0 hours (IP) [nM]” value at RET (658-1114) is “++++ (<50 nM = ++++)”.

As to `CCC1(C(=O)NC(C)C)CCN(c2ccc(-c3cc(-c4cnn(C5CCN(C(=O)CN6CCC(c7ccc(NC8CCC(=O)NC8=O)cc7F)CC6)CC5)c4)cn4ncc(C#N)c34)cn2)CC1` (stereo not drawn) [Compound 3, 1-(5-(3-Cyano-6-(1-(1-(2-(4-(4-((2,6-dioxopiperidin-3-yl)amino)-2-fluorophenyl)piperidin-1-yl)acetyl)piperidin-4-yl)-1H-pyrazol-4-yl)pyrazolo[1,5-a]pyridin-4-yl)pyridin-2-yl)-4-ethyl-N-isopropylpiperidine-4-carboxamide], the Emax on RET(KD: 658-1114 G810R) (setting [1]) and on RET (658-1114) (setting [5]) was under 30% throughout. For the same molecule, the DC50 on RET(KD: 658-1114 G810R) (setting [2]), on RET(KD: 658-1114 G810R) (setting [3]) and at RET (658-1114) (setting [4]) was under 50 nM in each case. Moreover, the “293T.165 RET(KD: 658-1114 G810R) 6.0 hours (Emax)” value on RET(KD: 658-1114 G810R) (HiBiT-Degradation) was “++++ (< 30% = ++++)”. For the same molecule, the “293T.165 RET(KD: 658-1114 G810R) 6.0 hours (IP) [nM]” value on RET(KD: 658-1114 G810R) (HiBiT-Degradation) is “++++ (< 50 nM = ++++)”. Besides, on RET (658-1114) (HiBiT-Degradation), the “293T.144 RET (658-1114) 6.0 hours (IP) [nM]” value was “++++ (< 50 nM = ++++)”.

Turning to `N#Cc1cnn2cc(-c3cnn(C4CC5(C4)CN(C(=O)CN4CCC(c6ccc(NC7CCC(=O)NC7=O)cc6F)CC4)C5)c3)cc(-c3ccc(N4CCN(Cc5ccccn5)CC4)nc3)c12` (stereo not drawn) [Compound 76, 6-[1-[2-[2-[4-[4-[(2,6-dioxo-3-piperidyl)amino]-2-fluoro-phenyl]-1-piperidyl]acetyl]-2-azaspiro[3.3]heptan-6-yl]pyrazol-4-yl]-4-[6-[4-(2-pyridylmethyl)piperazin-1-yl]-3-pyridyl]pyrazolo[1,5-a]pyridine-3-carbonitrile], the Emax is under 30% on RET(KD: 658-1114 G810R) (setting [1]); under 30% on RET(KD: 658-1114 G810R) (RET G810R, read-out: HiBiT-Degradation 293T.165 RET(KD: 658-1114 G810R) 6.0 hours (Emax)); under 30% at RET (658-1114) (RET wild-type, read-out: HiBiT-Degradation 293T.144 RET (658-1114) 6.0 hours (Emax)). Moreover, the DC50 on RET(KD: 658-1114 G810R) (setting [2]) is under 100 nM; at RET(KD: 658-1114 G810R) (RET G810R, read-out: HiBiT-Degradation 293T.165 RET(KD: 658-1114 G810R) 6.0 hours (DC50)) it was under 100 nM; at RET (658-1114) (RET wild-type, read-out: HiBiT-Degradation 293T.144 RET (658-1114) 6.0 hours (DC50)), under 50 nM. The “HiBiT-Degradation 293T.165 RET(KD: 658-1114 G810R) 6.0 hours (IP) [nM]” value at RET(KD: 658-1114 G810R) (RET G810R) is “+++ (<100 nM = +++)”. Besides, the “HiBiT-Degradation 293T.144 RET (658-1114) 6.0 hours (IP) [nM]” value at RET (658-1114) (RET wild-type) is “++++ (< 50 nM = ++++)”.
